Source: patent US7129218B2, “Use of rhamnolipids in wound healing, treatment and prevention of gum disease and periodontal regeneration” (Paradigm Biomedical, Inc., priority 1999, dated 2006)
Where a name gives a salt, the structure may show the parent alone.

Legend:
burn wounds = assay: Burn wounds, 7% body surface, topical treatment (rats); type: in vivo, Sprague-Dawley rats; conditions: 1% chlorhexidine hydrochloride in combination with BAC-3 in ointment, burn wounds
Method: The wounding of animals was performed according to the Protocol for Animal Use and Care at the University of California-Davis (hereafter UC-Davis). The entire animal protocol required 70 Sprague-Dawley rats: 30 rats for incision wounds and 40 rats for burn wounds. Among them 36 rats were burned over 7% of their skin and 4 rats were burned over 15% of their skin. Incision wounds of whole skin and burn wounds were treated topically with 2 test doses of the pharmaceutical preparation of di-rhamnolipid BAC-3. […] D.E.A. Hamburg); 23.8 g Lanolinum (Producer I.O.I. Hamburg); 4.7 g Cholesterin (Producer: Solvay, Wiena, Austria); Water Number: 320); or b). 1%; 0.1% active rhamnolipid (BAC-3) with antiseptic (chlorhexidine hydrochloride-[…]). Eucerin with BAC-3 was administrated twice daily during healing. The same experiment had one control group without the treatment, and one control group which was treated with ointment+1% chlorhexidine hydrochloride. During the experiment, animal body weight and behavior was checked every third day, and photographs were taken periodically. Burn wounds. The consecutive burn wounds should ideally be identical in depth and extent. The standard method defines the size and location of the burn wound, the temperature gradient, duration of exposure and method of applying the burn. The wound surface areas tested were of two different sizes. One size to 7% of the body surface, which enables one to compare the rate of wound healing with different percentage of BAC-3 and the other size to 15% of the body surface, which is a sufficient size so that healing could not occur by contraction alone. On the other hand, the total wound surface area should not cause major systematic problems. The latter can be concluded from undisturbed weight gain of the animals. The standard animal burn was performed by techniques and device described by Walker. The burning devices were prepared using a model device ordered from U.S. Army Surgical Research Unit, Experimental Surgery, Army Medical Center, Fort Sam Houston, Tex. 78234. […] The surface of the skin was measured for every animal using Mech's formula: A=kW^2/3; A=surface area in cm^2; W=body weight in grams; k=10. Method of burning. Each animal was anesthetized with sodium pentobarbital administered i/p (5 mg/25 g). (Producer: Veterinary Laboratory Inc. Lenexa, Kans.). The hair over the dorsum was clipped with animal clippers. The animal was placed supine in the burning device and the extremities were tied; the malleable retractor was placed over the animal and secured snugly with plastic straps. The entire device was then picked up by the retractor ends with forceps and the exposed area was immersed in boiling water. Ten seconds of exposure was sufficient to produce a full-thickness burn. On removal from the water, the dorsum was quickly dried by rolling on a towel and the animal was released and individually caged. This procedure produced a uniform burn with sharp margins. On post burn days 7, 14 and 45, animals were sacrificed by overdose of sodium pentobarbital and skin specimens were taken for histopathology. Specimens included the wound bed as well as the healthy skin of the wound margins. The specimens were fixed, and two stainings were routinely performed: Hematoxylin-Eosin (H&E) for microscopic evaluation, Verhoeff's staining for a better visualization of the crust and the regenerating dermis, and the alpha smooth muscle acting to identify the myofibroblasts. Microscopic findings were interpreted by a veterinarian pathologist. During the microscopic and macroscopic observations, four wound healing parameters were evaluated: crust formation, re-epithelialization, formation of granulation tissue and inflammation. 36 rats were divided into 6 groups. Each group had six animals. After burning rats according to the above-described procedure, each rat was caged individually. […]

Wistar Kyoto (WKY) rats [1] = conditions: cited from earlier work
Wistar Kyoto (WKY) rats [2] = conditions: cited from earlier work; remark: listed apart in the source
mice = conditions: doses that failed to produce antidepressant effects in control animals; cited from earlier work

[H]/N=C(\N/C(=N/[H])NCCCCCCNC(=N)NC(=N)Nc1ccc(Cl)cc1)Nc1ccc(Cl)cc1 [chlorhexidine hydrochloride, reference compound]
wound irritation (rats scratched the wounds) (burn wounds): irritated wounds

CNCCCN1c2ccccc2CCc2ccccc21 [desipramine]
incidence of stress ulcer (Wistar Kyoto (WKY) rats [1]): reduces
immobility in the forced swim test (Wistar Kyoto (WKY) rats [2]): reduces

Cc1nc2n(c(=O)c1CCN1CCC(c3noc4cc(F)ccc34)CC1)CCCC2 [risperidone]
PCP-induced enhancement of immobility in the forced swimming test (mice): attenuated

Cc1nc2sccn2c(=O)c1CCN1CCC(=C(c2ccc(F)cc2)c2ccc(F)cc2)CC1 [ritanserin]
PCP-induced enhancement of immobility in the forced swimming test (mice): attenuated
